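Tested at 5 concentrations; 48 h exposure; 96-well plates; endpoints linearly interpolated, else capped at highest concentration. Abbreviation: GI50, concentration required for 50% inhibition of growth.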 Activity calls are given as the source filed them. Rule as the data show it: active = GI50 up to about 1.1 µM and inactive = higher.
Experiments:
Assay in all cases: inhibition of tumour cell growth, NCI panel, 48 h
786-0 = system: 786-0
A498 = system: A498
A549 = system: A549
ACHN = system: ACHN
BT-549 = system: BT-549
CAKI-1 = system: CAKI-1
CCRF-CEM = system: CCRF-CEM
COLO 205 = system: COLO 205
DU-145 = system: DU-145
EKVX = system: EKVX
HCC 2998 = system: HCC 2998
HCT-116 = system: HCT-116
HCT-15 = system: HCT-15
HL-60 = system: HL-60
HOP-62 = system: HOP-62
HOP-92 = system: HOP-92
HT-29 = system: HT-29
Hs-578T = system: Hs-578T
IGROV-1 = system: IGROV-1
K562 = system: K562
KM12 = system: KM12
LOX IMVI = system: LOX IMVI
M14 = system: M14
MDA-MB-231 = system: MDA-MB-231
MDA-MB-435 = system: MDA-MB-435
MDA-N = system: MDA-N
MOLT-4 = system: MOLT-4
Malme-3M = system: Malme-3M
NCI-H226 = system: NCI-H226
NCI-H23 = system: NCI-H23
NCI-H460 = system: NCI-H460
NCI-H522 = system: NCI-H522
NCI/ADR-RES = system: NCI/ADR-RES
OVCAR-3 = system: OVCAR-3
OVCAR-4 = system: OVCAR-4
OVCAR-5 = system: OVCAR-5
OVCAR-8 = system: OVCAR-8
PC-3 = system: PC-3
RPMI-8226 = system: RPMI-8226
RXF 393 = system: RXF 393
SF-268 = system: SF-268
SF-295 = system: SF-295
SF-539 = system: SF-539
SK-MEL-28 = system: SK-MEL-28
SK-MEL-2 = system: SK-MEL-2
SK-MEL-5 = system: SK-MEL-5
SK-OV-3 = system: SK-OV-3
SN12C = system: SN12C
SNB-19 = system: SNB-19
SNB-75 = system: SNB-75
SR = system: SR
SW-620 = system: SW-620
T47D = system: T47D
TK-10 = system: TK-10
U-251 = system: U-251
UACC-257 = system: UACC-257
UACC-62 = system: UACC-62
UO-31 = system: UO-31
MCF7 = system: MCF7

CCCC(=O)NC(Nc1ccc(S(=O)(=O)Nc2ccc(OC)nn2)cc1)(C(F)(F)F)C(F)(F)F
GI50 (786-0): > 100 µM (inactive) | GI50 (A498): 87.9 µM (inactive) | GI50 (A549): > 100 µM (inactive) | GI50 (ACHN): > 100 µM (inactive) | GI50 (BT-549): > 100 µM (inactive) | GI50 (CAKI-1): > 100 µM (inactive) | GI50 (CCRF-CEM): > 100 µM (inactive) | GI50 (COLO 205): > 100 µM (inactive) | GI50 (DU-145): > 100 µM (inactive) | GI50 (EKVX): > 100 µM (inactive) | GI50 (HCC 2998): > 100 µM (inactive) | GI50 (HCT-116): > 100 µM (inactive) | GI50 (HCT-15): > 100 µM | GI50 (HL-60): > 100 µM (inactive) | GI50 (HOP-62): > 100 µM (inactive) | GI50 (HOP-92): > 100 µM (inactive) | GI50 (HT-29): > 100 µM (inactive) | GI50 (Hs-578T): > 100 µM (inactive) | GI50 (IGROV-1): > 100 µM (inactive) | GI50 (K562): > 100 µM (inactive) | GI50 (KM12): > 100 µM (inactive) | GI50 (LOX IMVI): > 100 µM (inactive) | GI50 (M14): > 100 µM (inactive) | GI50 (MDA-MB-231): > 100 µM (inactive) | GI50 (MDA-MB-435): > 100 µM (inactive) | GI50 (MDA-N): > 100 µM (inactive) | GI50 (MOLT-4): > 100 µM (inactive) | GI50 (Malme-3M): > 100 µM (inactive) | GI50 (NCI-H226): > 100 µM (inactive) | GI50 (NCI-H23): > 100 µM (inactive) | GI50 (NCI-H460): > 100 µM (inactive) | GI50 (NCI-H522): > 100 µM (inactive) | GI50 (NCI/ADR-RES): > 100 µM (inactive) | GI50 (OVCAR-3): > 100 µM (inactive) | GI50 (OVCAR-4): > 100 µM (inactive) | GI50 (OVCAR-5): > 100 µM (inactive) | GI50 (OVCAR-8): > 100 µM (inactive) | GI50 (PC-3): > 100 µM (inactive) | GI50 (RPMI-8226): > 100 µM (inactive) | GI50 (RXF 393): > 100 µM (inactive) | GI50 (SF-268): > 100 µM (inactive) | GI50 (SF-295): > 100 µM (inactive) | GI50 (SF-539): > 100 µM (inactive) | GI50 (SK-MEL-28): > 100 µM (inactive) | GI50 (SK-MEL-2): > 100 µM (inactive) | GI50 (SK-MEL-5): > 100 µM (inactive) | GI50 (SK-OV-3): > 100 µM (inactive) | GI50 (SN12C): > 100 µM (inactive) | GI50 (SNB-19): > 100 µM (inactive) | GI50 (SNB-75): > 100 µM (inactive) | GI50 (SR): > 100 µM (inactive) | GI50 (SW-620): > 100 µM (inactive) | GI50 (T47D): > 100 µM (inactive) | GI50 (TK-10): > 100 µM (inactive) | GI50 (U-251): > 100 µM (inactive) | GI50 (UACC-257): > 100 µM (inactive) | GI50 (UACC-62): > 100 µM (inactive) | GI50 (UO-31): > 100 µM (inactive)

COC(=O)C(=O)CC(=O)c1cccc(OC)c1
GI50 (786-0): > 100 µM (inactive) | GI50 (A498): > 100 µM (inactive) | GI50 (A549): > 100 µM (inactive) | GI50 (ACHN): > 100 µM (inactive) | GI50 (BT-549): > 100 µM (inactive) | GI50 (CAKI-1): > 100 µM (inactive) | GI50 (CCRF-CEM): > 100 µM (inactive) | GI50 (COLO 205): > 100 µM (inactive) | GI50 (DU-145): > 100 µM (inactive) | GI50 (EKVX): > 100 µM (inactive) | GI50 (HCC 2998): > 100 µM (inactive) | GI50 (HCT-116): > 100 µM (inactive) | GI50 (HCT-15): > 100 µM | GI50 (HL-60): > 100 µM (inactive) | GI50 (HOP-62): > 100 µM (inactive) | GI50 (HT-29): > 100 µM (inactive) | GI50 (Hs-578T): > 100 µM (inactive) | GI50 (IGROV-1): < 0.01 µM (active) | GI50 (K562): > 100 µM (inactive) | GI50 (KM12): > 100 µM (inactive) | GI50 (LOX IMVI): > 100 µM (inactive) | GI50 (M14): > 100 µM (inactive) | GI50 (MCF7): > 100 µM (inactive) | GI50 (MDA-MB-231): > 100 µM (inactive) | GI50 (MDA-MB-435): > 100 µM (inactive) | GI50 (MDA-N): 5.66 µM (inactive) | GI50 (MOLT-4): > 100 µM (inactive) | GI50 (Malme-3M): > 100 µM (inactive) | GI50 (NCI-H226): > 100 µM (inactive) | GI50 (NCI-H23): > 100 µM (inactive) | GI50 (NCI-H460): > 100 µM (inactive) | GI50 (NCI/ADR-RES): > 100 µM (inactive) | GI50 (OVCAR-3): > 100 µM (inactive) | GI50 (OVCAR-4): > 100 µM (inactive) | GI50 (OVCAR-5): > 100 µM (inactive) | GI50 (OVCAR-8): > 100 µM (inactive) | GI50 (PC-3): > 100 µM (inactive) | GI50 (RPMI-8226): > 100 µM (inactive) | GI50 (RXF 393): > 100 µM (inactive) | GI50 (SF-268): > 100 µM (inactive) | GI50 (SF-295): > 100 µM (inactive) | GI50 (SF-539): > 100 µM (inactive) | GI50 (SK-MEL-28): > 100 µM (inactive) | GI50 (SK-MEL-5): > 100 µM (inactive) | GI50 (SK-OV-3): > 100 µM (inactive) | GI50 (SN12C): > 100 µM (inactive) | GI50 (SNB-19): > 100 µM (inactive) | GI50 (SNB-75): > 100 µM (inactive) | GI50 (SW-620): > 100 µM (inactive) | GI50 (T47D): > 100 µM (inactive) | GI50 (TK-10): 78.3 µM (inactive) | GI50 (U-251): > 100 µM (inactive) | GI50 (UACC-257): > 100 µM (inactive) | GI50 (UACC-62): > 100 µM (inactive) | GI50 (UO-31): > 100 µM (inactive)

COc1cc(/C=C2\N=C(C)N(n3c(-c4ccccc4)nc4ccccc4c3=O)C2=O)cc(OC)c1OC
GI50 (786-0): > 100 µM (inactive) | GI50 (A498): > 100 µM (inactive) | GI50 (A549): > 100 µM (inactive) | GI50 (ACHN): > 100 µM (inactive) | GI50 (BT-549): > 100 µM (inactive) | GI50 (CAKI-1): > 100 µM (inactive) | GI50 (CCRF-CEM): > 100 µM (inactive) | GI50 (COLO 205): > 100 µM (inactive) | GI50 (DU-145): > 100 µM (inactive) | GI50 (EKVX): > 100 µM (inactive) | GI50 (HCC 2998): > 100 µM (inactive) | GI50 (HCT-116): > 100 µM (inactive) | GI50 (HCT-15): > 100 µM | GI50 (HL-60): > 100 µM (inactive) | GI50 (HOP-62): > 100 µM (inactive) | GI50 (HT-29): > 100 µM (inactive) | GI50 (Hs-578T): > 100 µM (inactive) | GI50 (IGROV-1): > 100 µM (inactive) | GI50 (K562): > 100 µM (inactive) | GI50 (KM12): > 100 µM (inactive) | GI50 (LOX IMVI): > 100 µM (inactive) | GI50 (M14): > 100 µM (inactive) | GI50 (MCF7): > 100 µM (inactive) | GI50 (MDA-MB-231): > 100 µM (inactive) | GI50 (MDA-MB-435): > 100 µM (inactive) | GI50 (MDA-N): > 100 µM (inactive) | GI50 (MOLT-4): > 100 µM (inactive) | GI50 (Malme-3M): > 100 µM (inactive) | GI50 (NCI-H226): > 100 µM (inactive) | GI50 (NCI-H23): 94.6 µM (inactive) | GI50 (NCI-H460): > 100 µM (inactive) | GI50 (NCI-H522): 46.3 µM (inactive) | GI50 (OVCAR-8): > 100 µM (inactive) | GI50 (PC-3): > 100 µM (inactive) | GI50 (RPMI-8226): 85.3 µM (inactive) | GI50 (SF-268): > 100 µM (inactive) | GI50 (SF-295): > 100 µM (inactive) | GI50 (SF-539): > 100 µM (inactive) | GI50 (SK-MEL-28): > 100 µM (inactive) | GI50 (SK-MEL-5): > 100 µM (inactive) | GI50 (SK-OV-3): > 100 µM (inactive) | GI50 (SN12C): > 100 µM (inactive) | GI50 (SNB-19): > 100 µM (inactive) | GI50 (SNB-75): > 100 µM (inactive) | GI50 (SR): > 100 µM (inactive) | GI50 (SW-620): > 100 µM (inactive) | GI50 (T47D): 82.4 µM (inactive) | GI50 (TK-10): > 100 µM (inactive) | GI50 (UACC-257): > 100 µM (inactive) | GI50 (UACC-62): > 100 µM (inactive) | GI50 (UO-31): > 100 µM (inactive)
